Test system: CN0375-F725-PDC KRAS spheroid viability
Experiment: Anticancer human tumor CN0375-F725-PDC patient-derived colon carcinoma cell line growth inhibition [KRAS2]
Details: spheroids with HUVEC and MSC; for IC50: curve of first compound; for viability, T/C: stronger effect = lower value
How it was run: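 KRAS-mutant tumor cells were grown as spheroids with HUVEC endothelial cells and human MSCs as stroma. Targeted agents were tested alone and with KRAS pathway inhibitors. Doses started at or near clinical Cmax, or 10 microM, descending half-log.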

[1] = second compound 0.1 µM, first compound 0.01 µM
[2] = second compound 0.1 µM, first compound 0.0316 µM
[3] = second compound 0.1 µM, first compound 0.1 µM
[4] = second compound 0.1 µM, first compound 0.316 µM
[5] = second compound 0.1 µM, first compound 1 µM
[6] = second compound 0.1 µM, first compound 3.16 µM
[7] = second compound 0.316 µM, first compound 0.01 µM
[8] = second compound 0.316 µM, first compound 0.0316 µM
[9] = second compound 0.316 µM, first compound 0.1 µM
[10] = second compound 0.316 µM, first compound 0.316 µM
[11] = second compound 0.316 µM, first compound 1 µM
[12] = second compound 0.316 µM, first compound 3.16 µM
[13] = second compound 1 µM, first compound 0.01 µM
[14] = second compound 1 µM, first compound 0.0316 µM
[15] = second compound 1 µM, first compound 0.1 µM
[16] = second compound 1 µM, first compound 0.316 µM
[17] = second compound 1 µM, first compound 1 µM
[18] = second compound 1 µM, first compound 3.16 µM
[19] = second compound 3.16 µM, first compound 0.01 µM
[20] = second compound 3.16 µM, first compound 0.0316 µM
[21] = second compound 3.16 µM, first compound 0.1 µM
[22] = second compound 3.16 µM, first compound 0.316 µM
[23] = second compound 3.16 µM, first compound 1 µM
[24] = second compound 3.16 µM, first compound 3.16 µM
[25] = second compound 10 µM, first compound 0.01 µM
[26] = second compound 10 µM, first compound 0.0316 µM
[27] = second compound 10 µM, first compound 0.1 µM
[28] = second compound 10 µM, first compound 0.316 µM
[29] = second compound 10 µM, first compound 1 µM
[30] = second compound 10 µM, first compound 3.16 µM
[31] = second compound 0.1 µM, first compound 10 µM
[32] = second compound 0.316 µM, first compound 10 µM
[33] = second compound 1 µM, first compound 10 µM
[34] = second compound 3.16 µM, first compound 10 µM
[35] = second compound 10 µM, first compound 10 µM
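Also: spheroids exposed to agents for 7 days.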

| SMILES | IC50 (second compound 0.1 µM) [nM] | IC50 (second compound 0.316 µM) [nM] | IC50 (second compound 1 µM) [nM] | IC50 (second compound 3.16 µM) [nM] | IC50 (second compound 10 µM) [nM] | viability, T/C [2] [%] | viability, T/C [3] [%] | viability, T/C [4] [%] | viability, T/C [5] [%] | viability, T/C [8] [%] | viability, T/C [9] [%] | viability, T/C [10] [%] | viability, T/C [11] [%] | viability, T/C [14] [%] | viability, T/C [15] [%] | viability, T/C [16] [%] | viability, T/C [17] [%] | viability, T/C [20] [%] | viability, T/C [21] [%] | viability, T/C [22] [%] | also measured |
| --- | --- | --- | --- | --- | --- | --- | --- | --- | --- | --- | --- | --- | --- | --- | --- | --- | --- | --- | --- | --- | --- |
| CC1COCCN1c1cc(-c2ccnn2C)c2ccnc(-c3ccn[nH]3)c2n1 (stereo not given) + CNCc1ccccc1-c1csc(C(C)Nc2nc(C)nc3cc(OC)c(OC)cc23)c1 | > 3160 | 3100 | 127 | < 10 | < 10 | 88.5 | 80.7 | 76.2 | 68 | 89.7 | 74.1 | 70 | 59.4 | 64.3 | 44.1 | 45.1 | 39 | 0.28 | 0.36 | 0.41 | viability, T/C [1]: 97.8%; viability, T/C [6]: 52.1%; viability, T/C [7]: 92%; viability, T/C [12]: 49.5%; viability, T/C [13]: 63.5%; viability, T/C [18]: 23.5%; viability, T/C [19]: 0.32%; viability, T/C [23]: 0.44%; viability, T/C [24]: 0.54%; viability, T/C [25]: 0.45%; viability, T/C [26]: 0.24%; viability, T/C [27]: 0.19%; viability, T/C [28]: 0.24%; viability, T/C [29]: 0.24%; viability, T/C [30]: 0.21% |
| CC1OCC2(CCN(c3cnc(Sc4ccnc(N)c4Cl)c(N)n3)CC2)C1N (stereo not given) + CNCc1ccccc1-c1csc(C(C)Nc2nc(C)nc3cc(OC)c(OC)cc23)c1 | > 10000 | > 10000 | 150 | < 31.6 | < 31.6 | 95.7 | 86.1 | 75.8 | 78.5 | 94.2 | 83.7 | 73.7 | 76.2 | 55.3 | 53.7 | 43.7 | 39 | 0.54 | 0.29 | 0.49 | viability, T/C [6]: 76.3%; viability, T/C [31]: 61.4%; viability, T/C [12]: 67.2%; viability, T/C [32]: 50.5%; viability, T/C [18]: 27.7%; viability, T/C [33]: 11.5%; viability, T/C [23]: 0.25%; viability, T/C [24]: 0.31%; viability, T/C [34]: 0.37%; viability, T/C [26]: 0.19%; viability, T/C [27]: 0.41%; viability, T/C [28]: 0.27%; viability, T/C [29]: 0.2%; viability, T/C [30]: 0.53%; viability, T/C [35]: 0.17% |
| CCN1CCN(Cc2ccc(Nc3ncc(F)c(-c4cc(F)c5nc(C)n(C(C)C)c5c4)n3)nc2)CC1 + CNCc1ccccc1-c1csc(C(C)Nc2nc(C)nc3cc(OC)c(OC)cc23)c1 | > 1000 | > 1000 | 32.8 | < 3.16 | < 3.16 | 92.4 | 89.1 | 102 | 86.9 | 78.7 | 79.1 | 81.7 | 58.9 | 40.5 | 51.9 | 9.53 | 10.2 | 0.25 | 0.28 | 0.37 | viability, T/C (second compound 0.1 µM, first compound 0.00316 µM): 102%; viability, T/C [1]: 91.5%; viability, T/C (second compound 0.316 µM, first compound 0.00316 µM): 92.6%; viability, T/C [7]: 88.8%; viability, T/C (second compound 1 µM, first compound 0.00316 µM): 76%; viability, T/C [13]: 65.7%; viability, T/C (second compound 3.16 µM, first compound 0.00316 µM): 0.86%; viability, T/C [19]: 0.97%; viability, T/C [23]: 0.51%; viability, T/C (second compound 10 µM, first compound 0.00316 µM): 0.33%; viability, T/C [25]: 0.19%; viability, T/C [26]: 0.51%; viability, T/C [27]: 0.3%; viability, T/C [28]: 0.17%; viability, T/C [29]: 0.4% |
| CCNC(=O)CC1N=C(c2ccc(Cl)cc2)c2cc(OC)ccc2-n2c(C)nnc21 (stereo not given) + CNCc1ccccc1-c1csc(C(C)Nc2nc(C)nc3cc(OC)c(OC)cc23)c1 | > 10000 | 6770 | 1480 | < 31.6 | < 31.6 | 103 | 89 | 76.2 | 75.2 | 92.5 | 85.2 | 77 | 67.7 | 57.8 | 65.7 | 63.7 | 52.7 | 0.58 | 0.33 | 0.36 | viability, T/C [6]: 67.3%; viability, T/C [31]: 50.9%; viability, T/C [12]: 58.4%; viability, T/C [32]: 45.6%; viability, T/C [18]: 40.9%; viability, T/C [33]: 20.7%; viability, T/C [23]: 0.35%; viability, T/C [24]: 0.39%; viability, T/C [34]: 0.46%; viability, T/C [26]: 0.3%; viability, T/C [27]: 0.29%; viability, T/C [28]: 0.46%; viability, T/C [29]: 0.31%; viability, T/C [30]: 0.71%; viability, T/C [35]: 0.4% |
| Cn1nccc1Nc1nccc(-c2cc3c(s2)C(C)(C)N(CCN2CCOCC2)C3=O)n1 + CNCc1ccccc1-c1csc(C(C)Nc2nc(C)nc3cc(OC)c(OC)cc23)c1 | 2790 | 1180 | 77.7 | < 31.6 | < 31.6 | 98 | 85.6 | 71.1 | 61.9 | 86.5 | 80.8 | 64.7 | 53 | 57.4 | 53 | 25.3 | 25.9 | 0.61 | 0.29 | 0.39 | viability, T/C [6]: 48.8%; viability, T/C [31]: 37.2%; viability, T/C [12]: 39.4%; viability, T/C [32]: 33.2%; viability, T/C [18]: 7.98%; viability, T/C [33]: 3.51%; viability, T/C [23]: 0.2%; viability, T/C [24]: 0.2%; viability, T/C [34]: 0.21%; viability, T/C [26]: 0.28%; viability, T/C [27]: 0.25%; viability, T/C [28]: 0.17%; viability, T/C [29]: 0.26%; viability, T/C [30]: 1.05%; viability, T/C [35]: 0.49% |
| CC(=O)OC12COC1CC(O)C1(C)C(=O)C(O)C3=C(C)C(OC(=O)C(O)C(NC(=O)OC(C)(C)C)c4ccccc4)CC(O)(C(OC(=O)c4ccccc4)C21)C3(C)C (stereo not given) + COc1cc2nc(C)nc(NC(C)c3cc(N)cc(C(F)(F)F)c3)c2cc1OC1CCOC1 | > 3160 | > 3160 | > 3160 | > 3160 | 1080 | 96.2 | 87.8 | 84.4 | 80.5 | 91.8 | 83.6 | 80 | 74.9 | 101 | 87.8 | 82.7 | 80.4 | 70.6 | 75.1 | 63.4 | viability, T/C [1]: 99.6%; viability, T/C [6]: 72.7%; viability, T/C [7]: 91%; viability, T/C [12]: 69.5%; viability, T/C [13]: 89.8%; viability, T/C [18]: 71.4%; viability, T/C [19]: 77.7%; viability, T/C [23]: 71.1%; viability, T/C [24]: 63.6%; viability, T/C [25]: 68.3%; viability, T/C [26]: 65.6%; viability, T/C [27]: 64.6%; viability, T/C [28]: 52.6%; viability, T/C [29]: 54.9%; viability, T/C [30]: 39.9% |

From PubChem BioAssay AID1963860 (Molecular Pharmacology Branch, DTP, NCI, 2024)
